Key:
[1] = Cytotoxicity assay (CellTiter-Glo, 72 h); format: cell-based, human; details: human, SNU-C4 3xFLAG-PXR KI cells; read-out: half maximal cytotoxic concentration (CC50)
Experimental: (§1) The indicated cells (2.5×10^3/well in 40 μL RPMI with 10% FBS) were plated in the 384-well plates, resulting in 0.5% DMSO and the indicated concentrations of chemicals. After 72 h compound treatment, the CellTiter-Glo Luminescent Cell Viability Assay (Promega) and an EnVision microplate reader were used to assess cytotoxicity. Wells containing DMSO alone or 10 μM staurosporine served as negative and positive controls, respectively. The percent cell viability for each well was calculated using equation 1: […]

[2] = test system: SNU—C4 3xFLAG-PXR KI cells; assay: Cytotoxicity assay (CellTiter-Glo, 72 h); format: cell-based, human; details: SNU—C4 3xFLAG-PXR KI cells
Experimental: as §1

PXR [3] = target: T1, PXR (Homo sapiens, UniProt O75469); assay: cell-based hPXR inverse agonistic assay
T1 sequence (O75469 1-434): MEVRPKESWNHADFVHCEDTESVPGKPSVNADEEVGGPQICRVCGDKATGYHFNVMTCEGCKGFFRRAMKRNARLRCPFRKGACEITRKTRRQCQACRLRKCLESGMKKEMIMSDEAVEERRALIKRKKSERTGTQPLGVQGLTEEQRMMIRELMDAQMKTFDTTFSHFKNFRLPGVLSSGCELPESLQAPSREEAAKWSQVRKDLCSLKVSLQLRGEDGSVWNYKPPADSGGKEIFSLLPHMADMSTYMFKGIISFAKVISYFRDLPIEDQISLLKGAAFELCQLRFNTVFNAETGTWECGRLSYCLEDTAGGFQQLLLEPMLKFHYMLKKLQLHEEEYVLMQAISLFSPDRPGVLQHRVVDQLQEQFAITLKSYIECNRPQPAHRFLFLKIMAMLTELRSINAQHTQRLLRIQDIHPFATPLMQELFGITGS

PXR [4] = target: T1, PXR; assay: cell-based hPXR antagonistic assay
PXR RNA = PXR RNA level in SNU—C4 3xFLAG-PXR KI cells; format: cell-based, human
[5] = test system: SNU—C4 3xFLAG-PXR KI cells; assay: TMT-MS whole-proteome quantification in SNU—C4 3xFLAG-PXR KI cells; format: cell-based, human; details: 5 μM, 12 h vs DMSO; 9,692 proteins detected
Experimental: The next day, 0.5% DMSO or 5 μM SJPYT-195 was added to triplicate dishes. After 12 h, the media were removed, cells were washed twice with ice cold PBS, 500 μL of 50 mM HEPES (pH 8.0) and 8 M urea was added to each dish, cells were scraped and transferred to 1.5 mL tubes, and the tubes were frozen on dry ice and stored at −80° C. Processing for TMT-MS was conducted according to a previously optimized protocol. To profile the whole proteome, the cell lysates (approximately 100 μg of protein per sample) were proteolyzed with Lys-C(Wako) at an enzyme-to-substrate ratio of 1:100 (w/w) for 3 h at room temperature. Samples were diluted with 50 mM HEPES (pH 8.5) to a final 2 M urea concentration. […]
Dried peptides were resuspended in 50 μL 100 mM HEPES (pH 8.5) and labeled with TMTpro 16plex Label Reagents [Thermo Fisher Scientific, 10 μg/μL in 100% ACN, 1:2 (w/w) ratio, room temperature for 1 h]. […] Fractions were dried in SpeedVac and resuspended in 5 μL 5% FA/1% trifluoroacetic acid immediately prior to mass spectrometry and quantitation analysis. […]
MS raw files were converted to mzXML files, and database searches were performed against Uniprot HUMAN protein database using our in-house developed JUMP pipeline. […] TMT-based quantification and statistical analysis were performed based on our previous method. […]

[6] = test system: SNU—C4 3xFLAG-PXR KI cell lines stably expressing HA-tagged GSPT1^G575N; assay: Cytotoxicity assay in cells overexpressing degradation-resistant GSPT1 mutant; format: cell-based, human; details: FIG. 7B-C
Experimental: Complete information for all plasmids is included in Table 1 below. […] Lentiviruses for pCDH-GSPT1 or pCDH-GSPT1^G575N were generated in 293T cells using psPAX2 and pMD2.G packaging vectors. The packaging vectors were gifts from Dr. Didier Trono (Addgene plasmid #12259 and 12260).
as §1

With `COc1ccc(OC)c(-n2nnc(C(=O)Nc3cc(Oc4cccc5c4C(=O)N(C4CCC(=O)NC4=O)C5=O)cc(C(C)(C)C)c3)c2C)c1` (stereo not shown) [Compound M4, N-(3-(tert-butyl)-5-((2-(2,6-dioxopiperidin-3-yl)-1,3-dioxoisoindolin-4-yl)oxy)phenyl)-1-(2,5-dimethoxyphenyl)-5-methyl-1H-1,2,3-triazole-4-carboxamide] the CC50 at 72 h [1] was 440 ± 80 nM, the “fold difference in CC50 values (CC-885 vs SJPYT-195)” value [2] was 133 fold and the inhibition at 10 µM (PXR [3]; read-out: Inverse agonist (% inhibition at 10 μM)) was 133%. The IC50 (PXR [3]; read-out: Inverse agonist (IC50/μM)) was 0.18 ± 0.055 µM, the inhibition at 10 µM (PXR [4]; read-out: Antagonist (% inhibition at 10 μM)) was 96% and the IC50 (PXR [4]; read-out: Antagonist (IC50/μM)) was 0.94 ± 0.2 µM. The “reduction of PXR RNA” value (PXR RNA; 5 μM, 12 h) was “negligible reduction”, the “PXR RNA level” value (PXR RNA; time-course, FIG. 5C) was “drastically reduced PXR RNA level” and the “proteins changed at whole-proteome scale (selectivity)” value [5] was “five down-regulated proteins (GSPT1, GSPT2, ZFP91, CYP1A1, and BRIP1) and one upregulated protein (FOS)”. For the same molecule, the “cytotoxicity in cells overexpressing GSPT1^G575N” value [6] was “partially resistant”.

Reference: patent US20260116867A1, “PROTEOLYSIS TARGETING CHIMERAS FOR HUMAN PREGNANE X RECEPTOR AND FOR DEGRADATION OF GSPT1” (ST. JUDE CHILDREN'S RESEARCH HOSPITAL, priority 2022, published 2026)
